Data as given in patent US9212168B2 (priority 2011, dated 2015).

Legend:
HCV genotype 1b replicon = HCV genotype 1b replicon assay (Renilla luciferase readout); format: cell-based, hepatitis C virus; settings: for Genotype 1b: HCV genotype 1b replicon; for EC50: Hepatitis C virus, read-out: Genotype 1b
Summary of the method: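 Huh7-derived APC144 subgenomic replicon cells carrying Renilla luciferase–NS3-NS5B, seeded 10,000/well without G418, then treated with compound dose-responses for 48 h at 37 °C (0.5% DMSO final). Luciferase signal fitted by 4-parameter model to EC50, reported as pEC50.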

HCV genotype 1a replicon = HCV genotype 1a replicon assay (NS3 protease activity readout); format: cell-based, hepatitis C virus; settings: for Genotype 1a: HCV genotype 1a replicon; for EC50: Hepatitis C virus, read-out: Genotype 1a, HCV genotype 1a replicon
Summary of the method: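 Genotype 1a subgenomic replicon cells (APC89, Huh7.5) were treated with compound dose-responses in G418-free medium, 0.5% DMSO final, for 48 or 72 hours at 37° C. Lysate NS3/4a protease activity measured with 15 μM FRET substrate, 20 min at 37° C (ex 340/em 509 nm); EC50 by 4-parameter fit.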

| Compound | Genotype 1b (HCV genotype 1b replicon) | Genotype 1a (HCV genotype 1a replicon) | EC50 (HCV genotype 1b replicon) | EC50 (HCV genotype 1a replicon) |
| --- | --- | --- | --- | --- |
| COC(=O)N[C@H](C(=O)N1C[C@@H](O)C[C@H]1c1nc(-c2ccc(-c3ccc(NC(=O)c4ccc(N5CCN(C(=O)[C@H]6CC6(C)C)C[C@H]5C)nc4)cc3)cc2)c[nH]1)C(C)C [Example 26-4] | D (D represents pEC50>10 (EC50<0.1 nM)) | C (C represents pEC50 between and 9 and about 10, (EC50 between 1 nM and 0.1 nM)) | – | – |
| COC(=O)NC(C(=O)N1CC(C)CC1c1nc(-c2ccc(-c3ccc(NC(=O)c4ccc(N5CCN(C(=O)C(C)(C)CO)CC5C)nc4)cc3OC(F)(F)F)cc2)c[nH]1)C(C)OC (stereo not drawn) [Example 13-31] | D (D represents pEC50>10 (EC50<0.1 nM)) | D (D represents pEC50>10 (EC50<0.1 nM)) | – | – |
| COC(=O)N[C@H](C(=O)N1C[C@@H](C)C[C@H]1c1nc(-c2ccc(-c3cc(F)c(NC(=O)c4ccc(N5CCN(C(=O)[C@H]6CC6(C)C)C[C@H]5C)nc4)cc3OC(F)(F)F)cc2)c[nH]1)C(C)C [Example 1-10] | D (D represents pEC50>10 (EC50<0.1 nM)) | D (D represents pEC50>10 (EC50<0.1 nM)) | – | – |
| COC(=O)N[C@H](C(=O)N1C[C@@H](C)C[C@H]1c1nc(-c2ccc(-c3ccc(C(=O)Nc4ccc(N5CCN(C(=O)C(C)(C)C)C[C@H]5C)nc4)cc3OC(F)(F)F)cc2)c(Cl)[nH]1)C1CCOCC1 [Example 22-6] | D (D represents pEC50>10 (EC50<0.1 nM)) | D (D represents pEC50>10 (EC50<0.1 nM)) | – | – |
| COC(=O)N[C@H](C(=O)N1C[C@@H](OC)C[C@H]1c1nc(-c2ccc(-c3cc(F)c(NC(=O)c4ccc(N5CCN(C(=O)C(C)(C)CO)C[C@H]5C)nc4)cc3OC(F)(F)F)cc2)c[nH]1)C(C)C [Example 27-6] | D (D represents pEC50>10 (EC50<0.1 nM)) | D (D represents pEC50>10 (EC50<0.1 nM)) | – | – |
| COC(=O)N[C@H](C(=O)N1C[C@@H](C)C[C@H]1c1nc(-c2ccc(-c3cc(F)c(NC(=O)c4ccc(N5CCN(C(=O)C6CC6)C[C@H]5C)nc4)cc3OC(F)(F)F)cc2)c[nH]1)C(C)C [Example 1-3] | D (D represents pEC50>10 (EC50<0.1 nM)) | D (D represents pEC50>10 (EC50<0.1 nM)) | – | – |
| COC(=O)N[C@H](C(=O)N1C[C@@H](C)C[C@H]1c1nc(-c2ccc(-c3cc(Cl)c(NC(=O)c4ccc(N5CCN(C(=O)C(C)(C)C)C[C@H]5C)nc4)cc3OC(F)(F)F)cc2)c[nH]1)C(C)(C)O [Example 13-5] | – | – | < 0.1 nM | < 0.1 nM |
| COC(=O)N[C@H](C(=O)N1C[C@@H](OC)C[C@H]1c1nc(-c2ccc(-c3cc(Cl)c(NC(=O)c4ccc(N5CCN(C(=O)C(C)(C)C)C[C@H]5C)nc4)cc3OC(F)(F)F)cc2)c(CO)[nH]1)C(C)C [Example 5-18] | – | – | < 0.1 nM | < 0.1 nM |
| COC(=O)NC(C(=O)N1CC(OC)CC1c1nc(-c2ccc(-c3cc(Cl)c(NC(=O)c4ccc(N5CCN(C(=O)C(C)(C)C)CC5C)nc4)cc3OC(F)(F)F)cc2)c[nH]1)C(C)OC (stereo not drawn) [Example 16-3] | D (D represents pEC50>10 (EC50<0.1 nM)) | D (D represents pEC50>10 (EC50<0.1 nM)) | – | – |
| CNC(=O)N1CCN(c2ccc(NC(=O)c3ccc(-c4ccc(-c5c[nH]c([C@@H]6C[C@@H]7CCCC[C@@H]7N6C(=O)[C@@H](NC(=O)OC)C(C)C)n5)cc4)c(OC(F)(F)F)c3)cn2)[C@H](C)C1 [Example 6-11] | – | – | < 0.1 nM | 0.1 to 1 nM |
| COC(=O)N[C@H](C(=O)N1C[C@@H](SC)C[C@H]1c1nc(-c2ccc(-c3cc(Cl)c(NC(=O)c4ccc(N5CCN(C(=O)[C@H]6CC6(C)C)C[C@H]5C)nc4)cc3OC(F)(F)F)cc2)c[nH]1)C(C)C [Example 5-4] | – | – | < 0.1 nM | < 0.1 nM |
| CNC(=O)N1C[C@@H](C)N(c2ccc(NC(=O)c3ccc(-c4ccc(-c5c[nH]c([C@@H]6C[C@H](C)CN6C(=O)[C@@H](NC(=O)OC)C(C)C)n5)cc4)c(OC(F)(F)F)c3)cn2)C[C@@H]1C [Example 4-14] | D (D represents pEC50>10 (EC50<0.1 nM)) | C (C represents pEC50 between and 9 and about 10, (EC50 between 1 nM and 0.1 nM)) | – | – |
| COC(=O)N[C@H](C(=O)N1C[C@@H](C)C[C@H]1c1nc(-c2ccc(-c3cc(Cl)c(NC(=O)c4ccc(N5CCN(C(=O)NC(C)(C)C)C[C@H]5C)nc4)cc3OC(F)(F)F)cc2)c[nH]1)C(C)C [Example 12-24] | – | – | < 0.1 nM | < 0.1 nM |
| COC(=O)N[C@H](C(=O)N1C[C@@H](OC)C[C@H]1c1nc(-c2ccc(-c3ccc(NC(=O)c4ccc(N5CCN(C(=O)C(C)(C)C)C[C@H]5C)nc4)cc3OC(F)(F)F)cc2)c[nH]1)C1CCOCC1 [Example 28-2] | D (D represents pEC50>10 (EC50<0.1 nM)) | D (D represents pEC50>10 (EC50<0.1 nM)) | – | – |
| COC(=O)NC(C(=O)N1CC(C)CC1c1nc(-c2ccc(-c3ccc(NC(=O)c4ccc(N5CCN(C(=O)C(C)(C)CO)CC5C)nc4)cc3OC(F)(F)F)cc2)c[nH]1)C(C)O (stereo not drawn) [Example 13-30] | D (D represents pEC50>10 (EC50<0.1 nM)) | D (D represents pEC50>10 (EC50<0.1 nM)) | – | – |
| COC(=O)N[C@H](C(=O)N1C[C@@H](C)C[C@H]1c1nc(-c2ccc(-c3ccc(NC(=O)c4ccc(N5CCN(C(=O)C(C)(C)C)C[C@H]5C)nc4)cc3OC(F)(F)F)cc2)c[nH]1)C(C)C [Example 1-75] | D (D represents pEC50>10 (EC50<0.1 nM)) | D (D represents pEC50>10 (EC50<0.1 nM)) | – | – |
| COC(=O)N[C@H](C(=O)N1C[C@@H](C)C[C@H]1c1nc(-c2ccc(-c3ccc(C(=O)Nc4ccc(N5C[C@H](C)N(C(=O)C6CC6C)C[C@H]5C)nc4)cc3OC(F)(F)F)cc2)c[nH]1)C(C)C (stereo partly drawn) [Example 4-17] | D (D represents pEC50>10 (EC50<0.1 nM)) | C (C represents pEC50 between and 9 and about 10, (EC50 between 1 nM and 0.1 nM)) | – | – |
| COC(=O)NC(C(=O)N1CC(C)CC1c1nc(-c2ccc(-c3cc(F)c(NC(=O)c4ccc(N5CCN(C(=O)C6CC6(F)F)CC5C)nc4)cc3C(F)(F)F)cc2)c[nH]1)C(C)C (mixture of isomers) [Example 1-53] | D (D represents pEC50>10 (EC50<0.1 nM)) | D (D represents pEC50>10 (EC50<0.1 nM)) | – | – |
| COC(=O)N[C@H](C(=O)N1C[C@@H](C)C[C@H]1c1nc(-c2ccc(-c3cc(F)c(NC(=O)c4ccc(N5CCN(C(=O)C(C)(C)CO)C[C@H]5C)nc4)cc3OC(F)(F)F)cc2)c[nH]1)C1CCOCC1 [Example 13-27] | – | – | < 0.1 nM | < 0.1 nM |
| COC(=O)N[C@H](C(=O)N1C[C@@H](OC)C[C@H]1c1nc(-c2ccc(-c3cc(F)c(NC(=O)c4ccc(N5CCN(C(=O)C(C)(C)C)C[C@H]5C)nc4)cc3OC(F)(F)F)cc2)c[nH]1)C1CCOCC1 [Example 28-1] | D (D represents pEC50>10 (EC50<0.1 nM)) | D (D represents pEC50>10 (EC50<0.1 nM)) | – | – |
| COC(=O)N[C@H](C(=O)N1C[C@@H](N(C)C)C[C@H]1c1nc(-c2ccc(-c3ccc(NC(=O)c4ccc(N5CCN(C(=O)c6c[nH]cn6)C[C@H]5C)nc4)cc3)cc2)c[nH]1)C(C)C [Example 2-1] | D (D represents pEC50>10 (EC50<0.1 nM)) | C (C represents pEC50 between and 9 and about 10, (EC50 between 1 nM and 0.1 nM)) | – | – |
| CCC(=O)N1CCC[C@@H]1C(=O)N1C[C@@H](C)N(c2ccc(NC(=O)c3ccc(-c4ccc(-c5c[nH]c([C@@H]6C[C@H](C)CN6C(=O)[C@@H](NC(=O)OC)C(C)C)n5)cc4)c(OC(F)(F)F)c3)cn2)C[C@@H]1C [Example 4-21] | D (D represents pEC50>10 (EC50<0.1 nM)) | D (D represents pEC50>10 (EC50<0.1 nM)) | – | – |
| COC(=O)N[C@H](C(=O)N1C[C@@H](C)C[C@H]1c1nc(-c2ccc(-c3cc(F)c(NC(=O)c4ccc(N5CCN(C(=O)C(C)(C)C)C[C@H]5C)nc4)cc3Cl)cc2)c[nH]1)C(C)C [Example 5-6] | – | – | < 0.1 nM | 0.1 to 1 nM |
| COC(=O)N[C@H](C(=O)N1C[C@@H](C)C[C@H]1c1nc(-c2ccc(-c3cc(F)c(NC(=O)c4ccc(N5CCN(C(=O)C(C)(C)CO)C[C@H]5C)nc4)cc3OC(F)(F)F)cc2)c[nH]1)C(C)C [Example 1-101] | D (D represents pEC50>10 (EC50<0.1 nM)) | D (D represents pEC50>10 (EC50<0.1 nM)) | – | – |
| COC(=O)N[C@H](C(=O)N1C[C@@H](C)C[C@H]1c1nc(-c2ccc(-c3cc(Cl)c(NC(=O)c4ccc(N5CCN(C(=O)C(C)(C)C)C[C@H]5C)nc4)cc3OC(F)(F)F)cc2)c[nH]1)C1C[C@@H](C)O[C@@H](C)C1 (stereo partly drawn) [Example 13-42] | – | – | < 0.1 nM | < 0.1 nM |
| COC(=O)NC(CC1CCOCC1)C(=O)N1C[C@@H](C)C[C@H]1c1nc(-c2ccc(-c3cc(Cl)c(NC(=O)c4ccc(N5CCN(C(=O)C(C)(C)C)C[C@H]5C)nc4)cc3OC(F)(F)F)cc2)c[nH]1 (stereo partly drawn) [Example 13-34] | – | – | < 0.1 nM | < 0.1 nM |
| COC(=O)NC(C(=O)N1C[C@@H](C)C[C@H]1c1nc(-c2ccc(-c3cc(Cl)c(NC(=O)c4ccc(N5CCN(C(=O)C(C)(C)C)C[C@H]5C)nc4)cc3OC(F)(F)F)cc2)c[nH]1)C1CCC(=O)CC1 (stereo partly drawn) [Example 13-35] | – | – | < 0.1 nM | < 0.1 nM |
